Measured values as given in patent US20090197955A1, “METHODS OF IMPROVING DHA DEPOSITION AND RELATED FUNCTION AND/OR DEVELOPMENT” (Monsanto Company, priority 2008, published 2009).

Test: Fatty acid composition of pig tissues (ham, loin, belly, skin) after feeding SDA ethyl ester diets, 35 day study
Type: in vivo, pigs
Conditions: 35 days
Procedure: A 35 day study was conducted to determine whether pigs fed a diet containing SDA could enhance tissues with improved fatty acid profiles including increased levels of SDA, EPA, and DHA.
Four test diets (Treatment 2, 3, 4, and 5) with SDA ethyl ester substituted for corn oil to provide 0.2, 0.4, 0.6 and 0.8% (w/w SDA active ingredient, as-is basis) were fed ad libitum to one pen of four pigs throughout the 35-day test period Table 4). All diets were fed in meal form. Treatment 6 was fed the same diet as Treatment 5, but for a duration of only 21 days.
All pigs were individually weighed at initiation of the acclimation and test period, and immediately prior to slaughter. Feed consumption per pen was recorded. Upon completion of the feeding period, pigs were slaughtered for tissue collection and carcass evaluation. Pigs were slaughtered using standard industry practices (electrical stunning, exsanguinations, scalding, dehairing and evisceration). Live weights prior to slaughter and hot carcass weights were recorded. The left side of each carcass was fabricated and samples were obtained from the loin (longissimus muscle), ham (semimembranosus muscle) and belly (a section from the center of the belly) for sensory evaluation, fatty acid, and proximate analysis. Prior to removing the sample for sensory and fatty and proximate analysis from the belly the firmness of the belly was evaluated using a flop test. At 24 hr postmortem fat thickness (10th rib), loin eye area (10th rib), visual color, firmness and marbling, Minolta color (L*a*b*), pH, and drip loss were measured.
In order to evaluate the fatty acid composition of pig tissues (loin, ham, skin, and belly), samples were stored at −80° C. until evaluation. After thawing, ˜22 g of fresh pig tissue was chopped into small pieces and thoroughly mixed before 10 g was sub sampled and lyophilized. Lyophilized samples were ground in 30 ml Sarstedt tubes with two ball bearings using a Mega Grinder. Ground samples (loin and ham: 50 mg; skin: 100 mg; belly: 150 mg; diet: 500 mg) were directly methylated with sulfuric acid in methanol (loin and ham: 1 mL; skin: 3 mL; belly: 10 mL; diet: 1.5 mL) sealed in the presence of butylated hydroxytoluene (50 mg BHT in 100 ml reagent) in reflux conditions of 90° C. Resultant fatty acid methyl esters (FAME's) were separated by capillary gas chromatography (GC) and detected by flame ionization detector (FID). The column used was a Supelco Omegawax 250 capillary column with dimensions of 30 m×0.25 mm×0.25 μm film thickness. The run time was 32 minutes. Peaks were identified based on their relative retention time compared to a FAME reference mixture. Quantification was achieved by using an internal standard (c15:0 triacylglyceride (TAG) for pig tissue samples and c17:0 TAG for diet samples). Results are reported as FA g/100 g fat with theoretical response correction.
For Table 6 below, each value represents g/100 g total fatty acids a mean of 4 samples (1 sample from each of 4 pigs) per treatment.

Question: Which “12:0, ham” value (0.2% SDA feed) does the source give for CC/C=C\C/C=C\C/C=C\C/C=C\CCCCC(=O)O [SDA, stearidonic acid] here?
Answer: Its value is 0.06 g FA per 100 g fat.

Question: What about the “14:0, ham” value (0.2% SDA feed) of the same molecule?
Answer: The value was 1.06 g FA per 100 g fat.

Question: What about the “16:0, ham” value (0.2% SDA feed) of the same molecule?
Answer: Its value is 21.24 g FA per 100 g fat.

Question: And the “16:1 n-7, ham” value (0.2% SDA feed)?
Answer: The value was 3.58 g FA per 100 g fat.

Question: What about the “16:1 n-9, ham” value (0.2% SDA feed) of the same molecule?
Answer: The value was 0.26 g FA per 100 g fat.

Question: And the “18:0, ham” value (0.2% SDA feed)?
Answer: Its value is 10.13 g FA per 100 g fat.

Question: What about the “18:1 n-7, ham” value (0.2% SDA feed) of the same molecule?
Answer: The value was 4.55 g FA per 100 g fat.

Question: And the “18:1 n-9, ham” value (0.2% SDA feed)?
Answer: Its value is 40.91 g FA per 100 g fat.

Question: What about the “18:2 n-6 (LA), ham” value (0.2% SDA feed) of the same molecule?
Answer: Its value is 8.86 g FA per 100 g fat.

Question: What about the “18:3 n-3 (ALA), ham” value (0.2% SDA feed) of the same molecule?
Answer: Its value is 0.20 g FA per 100 g fat.

Question: And the “18:3 n-6 (GLA), ham” value (0.2% SDA feed)?
Answer: The value was 0.08 g FA per 100 g fat.

Question: What about the “18:4 n-3 (SDA), ham” value (0.2% SDA feed) of the same molecule?
Answer: Its value is 0.03 g FA per 100 g fat.

Question: What about the “20:0, ham” value (0.2% SDA feed) of the same molecule?
Answer: Its value is 0.16 g FA per 100 g fat.

Question: And the “20:1 n-7, ham” value (0.2% SDA feed)?
Answer: The value was 0.04 g FA per 100 g fat.

Question: What about the “20:1 n-9, ham” value (0.2% SDA feed) of the same molecule?
Answer: Its value is 0.69 g FA per 100 g fat.

Question: And the “20:1 n-11, ham” value (0.2% SDA feed)?
Answer: Its value is 0.04 g FA per 100 g fat.

Question: And the “20:2 n-6, ham” value (0.2% SDA feed)?
Answer: Its value is 0.38 g FA per 100 g fat.

Question: And the “20:3 n-3, ham” value (0.2% SDA feed)?
Answer: Its value is 0.03 g FA per 100 g fat.

Question: And the “20:3 n-6 (DGLA), ham” value (0.2% SDA feed)?
Answer: Its value is 0.29 g FA per 100 g fat.

Question: What about the “20:4 n-3 (ETA), ham” value (0.2% SDA feed) of the same molecule?
Answer: Its value is 0.09 g FA per 100 g fat.

Question: What about the “20:4 n-6 (AA), ham” value (0.2% SDA feed) of the same molecule?
Answer: The value was 1.96 g FA per 100 g fat.

Question: What about the “20:5 n-3 (EPA), ham” value (0.2% SDA feed) of the same molecule?
Answer: Its value is 0.17 g FA per 100 g fat.

Question: What about the “22:0, ham” value (0.2% SDA feed) of the same molecule?
Answer: The value was 0.03 g FA per 100 g fat.

Question: What about the “22:1 n-9, ham” value (0.2% SDA feed) of the same molecule?
Answer: Its value is 0.00 g FA per 100 g fat.

Question: What about the “22:1 n-11, ham” value (0.2% SDA feed) of the same molecule?
Answer: The value was 0.00 g FA per 100 g fat.

Question: What about the “22:1 n-13, ham” value (0.2% SDA feed) of the same molecule?
Answer: The value was 0.00 g FA per 100 g fat.

Question: What about the “22:2 n-7, ham” value (0.2% SDA feed) of the same molecule?
Answer: Its value is 0.00 g FA per 100 g fat.

Question: What about the “22:3 n-6, ham” value (0.2% SDA feed) of the same molecule?
Answer: Its value is 0.24 g FA per 100 g fat.

Question: And the “22:5 n-3 (DPA), ham” value (0.2% SDA feed)?
Answer: Its value is 0.39 g FA per 100 g fat.

Question: What about the “22:6 n-3 (DHA), ham” value (0.2% SDA feed) of the same molecule?
Answer: The value was 0.09 g FA per 100 g fat.

Question: What about the “24:1 n-9, ham” value (0.2% SDA feed) of the same molecule?
Answer: The value was 0.04 g FA per 100 g fat.

Question: What about the “Total PUFA, ham” value (0.2% SDA feed) of the same molecule?
Answer: The value was 12.82 g FA per 100 g fat.

Question: And the “Total monoenes, ham” value (0.2% SDA feed)?
Answer: The value was 50.11 g FA per 100 g fat.

Question: And the “Total n-3, ham” value (0.2% SDA feed)?
Answer: The value was 1.01 g FA per 100 g fat.

Question: What about the “Total n-6, ham” value (0.2% SDA feed) of the same molecule?
Answer: Its value is 11.81 g FA per 100 g fat.

Question: And the “Total saturates, ham” value (0.2% SDA feed)?
Answer: The value was 32.68 g FA per 100 g fat.

Question: What about the “n-6/n-3, ham” value (0.2% SDA feed) of the same molecule?
Answer: Its value is 11.69.

Question: What about the “DHA enrichment in ham” value (0.2-0.8% SDA) of the same molecule?
Answer: Its value is “enriched in ham in a dose dependent manner”.

Question: What about the “DPA enrichment in loin and ham tissues” value (0.2-0.8% SDA) of the same molecule?
Answer: Its value is “enriched in loin and ham tissues in a dose dependent manner”.

Question: And the “SDA, ETA and EPA enrichment in belly, loin, ham and skin tissues” value (0.2-0.8% SDA)?
Answer: Its value is “enriched in belly, loin, ham, and skin tissues in a dose dependent manner”.

Question: And the “12:0, ham” value (0.4% SDA feed)?
Answer: The value was 0.06 g FA per 100 g fat.

Question: And the “14:0, ham” value (0.4% SDA feed)?
Answer: The value was 1.10 g FA per 100 g fat.

Question: What about the “16:0, ham” value (0.4% SDA feed) of the same molecule?
Answer: Its value is 21.45 g FA per 100 g fat.

Question: What about the “16:1 n-7, ham” value (0.4% SDA feed) of the same molecule?
Answer: Its value is 3.45 g FA per 100 g fat.

Question: And the “16:1 n-9, ham” value (0.4% SDA feed)?
Answer: The value was 0.25 g FA per 100 g fat.

Question: What about the “18:0, ham” value (0.4% SDA feed) of the same molecule?
Answer: The value was 10.74 g FA per 100 g fat.

Question: And the “18:1 n-7, ham” value (0.4% SDA feed)?
Answer: Its value is 4.28 g FA per 100 g fat.

Question: What about the “18:1 n-9, ham” value (0.4% SDA feed) of the same molecule?
Answer: The value was 39.94 g FA per 100 g fat.

Question: What about the “18:2 n-6 (LA), ham” value (0.4% SDA feed) of the same molecule?
Answer: The value was 9.18 g FA per 100 g fat.

Question: And the “18:3 n-3 (ALA), ham” value (0.4% SDA feed)?
Answer: Its value is 0.26 g FA per 100 g fat.

Question: What about the “18:3 n-6 (GLA), ham” value (0.4% SDA feed) of the same molecule?
Answer: Its value is 0.09 g FA per 100 g fat.

Question: And the “18:4 n-3 (SDA), ham” value (0.4% SDA feed)?
Answer: The value was 0.03 g FA per 100 g fat.

Question: And the “20:0, ham” value (0.4% SDA feed)?
Answer: The value was 0.16 g FA per 100 g fat.

Question: What about the “20:1 n-7, ham” value (0.4% SDA feed) of the same molecule?
Answer: Its value is 0.04 g FA per 100 g fat.

Question: What about the “20:1 n-9, ham” value (0.4% SDA feed) of the same molecule?
Answer: The value was 0.66 g FA per 100 g fat.

Question: And the “20:1 n-11, ham” value (0.4% SDA feed)?
Answer: Its value is 0.04 g FA per 100 g fat.

Question: What about the “20:2 n-6, ham” value (0.4% SDA feed) of the same molecule?
Answer: Its value is 0.36 g FA per 100 g fat.

Question: And the “20:3 n-3, ham” value (0.4% SDA feed)?
Answer: Its value is 0.04 g FA per 100 g fat.

Question: And the “20:3 n-6 (DGLA), ham” value (0.4% SDA feed)?
Answer: Its value is 0.32 g FA per 100 g fat.

Question: What about the “20:4 n-3 (ETA), ham” value (0.4% SDA feed) of the same molecule?
Answer: Its value is 0.14 g FA per 100 g fat.

Question: And the “20:4 n-6 (AA), ham” value (0.4% SDA feed)?
Answer: The value was 1.90 g FA per 100 g fat.

Question: What about the “20:5 n-3 (EPA), ham” value (0.4% SDA feed) of the same molecule?
Answer: Its value is 0.23 g FA per 100 g fat.

Question: What about the “22:0, ham” value (0.4% SDA feed) of the same molecule?
Answer: The value was 0.04 g FA per 100 g fat.

Question: And the “22:1 n-9, ham” value (0.4% SDA feed)?
Answer: The value was 0.01 g FA per 100 g fat.

Question: What about the “22:1 n-11, ham” value (0.4% SDA feed) of the same molecule?
Answer: The value was 0.00 g FA per 100 g fat.

Question: What about the “22:1 n-13, ham” value (0.4% SDA feed) of the same molecule?
Answer: Its value is 0.00 g FA per 100 g fat.

Question: What about the “22:2 n-7, ham” value (0.4% SDA feed) of the same molecule?
Answer: The value was 0.00 g FA per 100 g fat.

Question: And the “22:3 n-6, ham” value (0.4% SDA feed)?
Answer: Its value is 0.26 g FA per 100 g fat.

Question: And the “22:5 n-3 (DPA), ham” value (0.4% SDA feed)?
Answer: The value was 0.44 g FA per 100 g fat.

Question: And the “22:6 n-3 (DHA), ham” value (0.4% SDA feed)?
Answer: Its value is 0.08 g FA per 100 g fat.
